Data as given in patent publication US9914730B2, “Azaquinazoline inhibitors of Atypical protein Kinase C” (Ignyta, Inc., priority 2012, dated 2018).

biological target: T1, full-length human PKCι (Homo sapiens, UniProt P41743); experiment: PKCι IC50 IMAP assay, full-length PKCι at 150 μM ATP; assay type: biochemical; settings: read-out: IC50 in IMAP assay against full length PKCi at 150 μM ATP
T1 construct: Recombinant, full-length human PKCι expressed in Sf21 insect cells is also commercially available; purchased; host or cells: Sf21 insect cells
T1 sequence (P41743 1-596): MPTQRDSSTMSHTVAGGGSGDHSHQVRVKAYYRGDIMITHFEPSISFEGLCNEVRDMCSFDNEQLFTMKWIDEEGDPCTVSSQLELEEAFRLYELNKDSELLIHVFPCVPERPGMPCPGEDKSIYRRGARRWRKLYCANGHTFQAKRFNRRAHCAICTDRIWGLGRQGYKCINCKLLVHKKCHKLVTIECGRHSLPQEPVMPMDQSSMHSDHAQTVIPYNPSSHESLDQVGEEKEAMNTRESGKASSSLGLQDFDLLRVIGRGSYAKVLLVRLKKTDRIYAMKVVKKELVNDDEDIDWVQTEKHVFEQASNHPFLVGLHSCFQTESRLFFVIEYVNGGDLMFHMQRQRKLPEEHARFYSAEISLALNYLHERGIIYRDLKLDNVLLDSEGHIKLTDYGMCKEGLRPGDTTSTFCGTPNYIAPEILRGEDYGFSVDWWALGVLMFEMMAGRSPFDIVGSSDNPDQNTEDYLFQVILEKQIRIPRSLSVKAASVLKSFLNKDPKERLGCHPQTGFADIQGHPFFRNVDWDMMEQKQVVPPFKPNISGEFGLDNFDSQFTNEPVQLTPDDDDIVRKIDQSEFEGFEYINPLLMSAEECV
How it was run: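 Recombinant full-length human PKCι (Sf21-expressed, typically 15 pM) phosphorylated 100 nM 5FAM-labelled PKCε pseudosubstrate-derived peptide with 150 μM ATP (5× KM^APP) in 18 mM tris-HCl pH7.5, 9 mM MgCl2, EGTA, DTT, 4% DMSO. After 60 min at room temperature, IMAP binding reagent was added for 2 h and fluorescence polarisation read.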

Q: For CC(=O)Nc1cc(-c2nc(N3CCN[C@@H](COCc4ccccc4)C3)c3c(C4CC4)cncc3n2)ccn1 [Example 768, N-{4-[4-((R)-3-Benzyloxymethyl-piperazin-1-yl)-5-cyclopropyl-pyrido[3,4-d]pyrimidin-2-yl]-pyridin-2-yl}-acetamide], which IC50 is on record?
A: The IC50 was under 100 nM.

Q: How did the IC50 turn out when c1ccn2nc(Nc3cc(-c4nc(N5CCNCC5)c5c(C6CCC6)cncc5n4)ccn3)nc2c1 [Example 2022, [4-(5-Cyclobutyl-4-piperazin-1-yl-pyrido[3,4-d]pyrimidin-2-yl)-pyridin-2-yl]-[1,2,4]triazolo[1,5-a]pyridin-2-yl-amine] was run?
A: Its IC50 is under 100 nM.

Q: How did the IC50 turn out when COc1cc(Nc2cc(-c3nc(N4CCNCC4)c4c(C5CC5)cncc4n3)ccn2)cc(OC)c1OC [Example 611, [4-(5-Cyclopropyl-4-piperazin-1-yl-pyrido[3,4-d]pyrimidin-2-yl)-pyridin-2-yl]-(3,4,5-trimethoxy-pheny)-amine] was run?
A: Its IC50 is 100 to 1000 nM.

Q: How did the IC50 turn out when CC(C)(c1cc2c(-c3nc(N4CCNCC4)c4c(C5CC5)cncc4n3)ccnc2[nH]1)C(F)(F)F [Example 2063, 5-Cyclopropyl-4-piperazin-1-yl-2-[2-(2,2,2-trifluoro-1,1-dimethyl-ethyl)-1H-pyrrolo[2,3-b]pyridin-4-yl]-pyrido[3,4-d]pyrimidine] was run?
A: The IC50 was under 100 nM.

Q: N#Cc1ccccc1Nc1cc(-c2nc(N3CCNCC3)c3c(C4CC4)cncc3n2)ccn1 [Example 519, 2-[4-(5-Cyclopropyl-4-piperazin-1-yl-pyrido[3,4-d]pyrimidin-2-yl)-pyridin-2-ylamino]-benzonitrile] was tested. Which IC50 did it give?
A: Its IC50 is 100 to 1000 nM.

Q: With NC(=O)COc1ccc(Nc2cc(-c3nc(N[C@@H]4CCNC4)c4ccncc4n3)ccn2)cc1 [Example 310, 2-(4-{4-[4-((R)-Pyrrolidin-3-ylamino)-pyrido[3,4-d]pyrimidin-2-yl]-pyridin-2-ylamino}-phenoxy)-acetamide] as the compound, how does the IC50 read?
A: The IC50 was 100 to 1000 nM.

Q: COCCN1CCN(c2nc(-c3ccnc(NC(=O)C4CC4)c3)nc3cncc(C4CC4)c23)CC1 [Example 666, Cyclopropane-carboxylic acid (4-{5-cyclopropyl-4-[4-(2-methoxy-ethyl)-piperazin-1-yl]-pyrido[3,4-d]pyrimidin-2-yl}-pyridin-2-yl)-amide] was tested. Which IC50 did it give?
A: Its IC50 is 1000 to 10000 nM.

Q: Which IC50 does the source give for CC1(Nc2nc(-c3ccnc(Nc4ncc(F)cc4F)c3)nc3cncc(C4CC4)c23)CCNCC1 [Example 2174, {5-Cyclopropyl-2-[2-(3,5-difluoro-pyridin-2-ylamino)-pyridin-4-yl]-pyrido[3,4-d]pyrimidin-4-yl}-(4-methyl-piperidin-4-yl)-amine] here?
A: Its IC50 is under 100 nM.

Q: With NC1CCN(c2nc(-c3ccnc(Nc4c(F)cccc4F)c3)nc3cncc(C4CC4)c23)CC1 [Example 690, {4-[4-(4-Amino-piperidin-1-yl)-5-cyclopropyl-pyrido[3,4-d]pyrimidin-2-yl]-pyridin-2-yl}-(2,6-difluoro-phenyl)-amine] as the compound, how does the IC50 read?
A: Its IC50 is under 100 nM.

Q: With Brc1cncc2nc(-c3ccncc3)nc(N3CCNCC3)c12 [Example 133, 1-[5-bromo-2-(pyridin-4-yl)pyrido[3,4-d]pyrimidin-4-yl]piperazine] as the compound, how does the IC50 read?
A: The IC50 was under 100 nM.

Q: Which IC50 does the source give for C[C@H]1CN(c2nc(-c3ccnc(Nc4c(F)cccc4F)c3)nc3cncc(C4CC4)c23)CCN1 [Example 692, {4-[5-Cyclopropyl-4-((S)-3-methyl-piperazin-1-yl)-pyrido[3,4-d]pyrimidin-2-yl]-pyridin-2-yl}-(2,6-difluoro-phenyl)-amine] here?
A: The IC50 was under 100 nM.

Q: For COc1cncc2nc(-c3ccncc3)nc(N3CCC(N)(C(=O)N[C@@H](CCO)c4ccc(Cl)cc4)CC3)c12 [Example 154, 4-Amino-1-(5-methoxy-2-pyridin-4-yl-pyrido[3,4-d]pyrimidin-4-yl)-piperidine-4-carboxylic acid [(S)-1-(4-chloro-phenyl)-3-hydroxy-propyl]-amide], which IC50 is on record?
A: Its IC50 is 100 to 1000 nM.

Q: For N[C@@H](CNc1nc(-c2ccncc2)nc2c(Nc3ccccc3)nccc12)Cc1ccccc1 [Example 123, N^4-((R)-2-Amino-3-phenyl-propyl)-N^8-phenyl-2-pyridin-4-yl-pyrido[3,4-d]pyrimidine-4,8-diamine], which IC50 is on record?
A: The IC50 was 1000 to 10000 nM.

Q: How did the IC50 turn out when COc1ncccc1Nc1cc(-c2nc(N3CCNCC3)c3c(C4CC4)cncc3n2)ccn1 [Example 513, [4-(5-Cyclopropyl-4-piperazin-1-yl-pyrido[3,4-d]pyrimidin-2-yl)-pyridin-2-yl]-(2-methoxy-pyridin-3-yl)-amine] was run?
A: The IC50 was under 100 nM.

Q: CN1CCN(c2cccc(Nc3cc(-c4nc(N5CCC(O)C(O)C5)c5c(C6CC6)cncc5n4)ccn3)c2)CC1 (racemic) [Example 678, (+/−)-(trans)-1-(5-Cyclopropyl-2-{2-[3-(4-methyl-piperazin-1-yl)-phenylamino]-pyridin-4-yl}-pyrido[3,4d]pyrimidin-4-yl)-piperidine-3,4-diol] was tested. Which IC50 did it give?
A: Its IC50 is under 100 nM.

Q: Which IC50 does the source give for COc1cccc(Nc2cc(-c3nc(N4CCNCC4)c4c(C5CC5)cncc4n3)ccn2)n1 [Example 588, [4-(5-Cyclopropyl-4-piperazin-1-yl-pyrido[3,4-d]pyrimidin-2-yl)-pyridin-2-yl]-(6-methoxy-pyridin-2-yl)-amine] here?
A: The IC50 was under 100 nM.

Q: Which IC50 does the source give for c1cc(-c2nc(N3CCNCC3)c3c(C4CC4)cncc3n2)c2cc[nH]c2n1 [Example 1209, 5-Cyclopropyl-4-piperazin-1-yl-2-(1H-pyrrolo[2,3-b]pyridin-4-yl)-pyrido[3,4-d]pyrimidine] here?
A: Its IC50 is under 100 nM.

Q: For C[C@H]1CN(c2nc(-c3ccnc(Nc4ccccc4)c3)nc3cncc(Cl)c23)CCN1 [Example 250, {4-[5-Chloro-4-((S)-3-methyl-piperazin-1-yl)-pyrido[3,4-d]pyrimidin-2-yl]-pyridin-2-yl}-phenyl-amine], which IC50 is on record?
A: Its IC50 is 100 to 1000 nM.

Q: For Fc1ccc2c([nH]c3nccc(-c4nc(N5CCNCC5)c5c(C6CC6)cncc5n4)c32)c1F [Example 2036, 4-(5-Cyclopropyl-4-piperazin-1-yl-pyrido[3,4-d]pyrimidin-2-yl)-7,8-difluoro-9H-pyrido[2,3-b]indole], which IC50 is on record?
A: Its IC50 is under 100 nM.

Q: With Cc1ccc(Nc2cc(-c3nc(N[C@@H]4CCNC4)c4ccncc4n3)ccn2)nc1 [Example 345, {2-[2-(5-Methyl-pyridin-2-ylamino)-pyridin-4-yl]-pyrido[3,4-d]pyrimidin-4-yl}-(R)-pyrrolidin-3-yl-amine] as the compound, how does the IC50 read?
A: The IC50 was under 100 nM.

Q: How did the IC50 turn out when c1cc(-c2nc(N3CCNCC3)c3c(C4CC4)cncc3n2)cc(Nc2nc3cc(C4CC4)ccn3n2)n1 [Example 831, [4-(5-Cyclopropyl-4-piperazin-1-yl-pyrido[3,4-d]pyrimidin-2-yl)-pyridin-2-yl]-(7-cyclopropyl-[1,2,4]triazolo[1,5-a]pyridin-2-yl)-amine] was run?
A: Its IC50 is under 100 nM.

Q: How did the IC50 turn out when CC(C)c1cccc(Nc2cc(-c3nc(N4CCNCC4)c4c(C5CC5)cncc4n3)ccn2)c1 [Example 622, [4-(5-Cyclopropyl-4-piperazin-1-yl-pyrido[3,4-d]pyrimidin-2-yl)-pyridin-2-yl]-(3-isopropyl-phenyl)-amine] was run?
A: Its IC50 is under 100 nM.

Q: CN1CCN(c2cccc(Nc3cc(-c4nc(N5CCC(O)CC5)c5c(C6CC6)cncc5n4)ccn3)c2)CC1 [Example 688, 1-(5-Cyclopropyl-2-{2-[3-(4-methyl-piperazin-1-yl)-phenylamno]-pyridin-4-yl}-pyrido[3,4-d]pyrimidin-4-yl)-piperidin-4-ol] was tested. Which IC50 did it give?
A: The IC50 was under 100 nM.

Q: N[C@H](CNc1nc(-c2ccncc2)nc2cnccc12)Cc1ccccc1 [Example 6, N-[(2S)-2-amino-3-phenylpropyl]-2-(pyridin-4-yl)pyrido[3,4-d]-pyrimidin-4-amine] was tested. Which IC50 did it give?
A: The IC50 was under 100 nM.

Q: CC1(C)CN(c2nc(-c3ccnc(Nc4nc(F)c(F)cc4F)c3)nc3cncc(C4CC4)c23)CCN1 [Example 815, {4-[5-Cyclopropyl-4-(3,3-dimethyl-piperazin-1-yl)-pyrido[3,4-d]pyrimidin-2-yl]-pyridin-2-yl}-(3,5,6-trifluoro-pyridin-2-yl)-amine] was tested. Which IC50 did it give?
A: The IC50 was under 100 nM.

Q: NC(=O)Cc1ccc(Nc2cc(-c3nc(N[C@@H]4CCNC4)c4ccncc4n3)ccn2)cc1 [Example 313, 2-(4-{4-[4-((R)-Pyrrolidin-3-ylamino)-pyrido[3,4-d]pyrimidin-2-yl]-pyridin-2-ylamino}-phenyl)-acetamide] was tested. Which IC50 did it give?
A: Its IC50 is under 100 nM.

Q: With COCCNC(=O)C1CCN(c2nc(-c3ccnc(Nc4c(F)cccc4F)c3)nc3cncc(C4CC4)c23)CC1 [Example 739, 1-{5-Cyclopropyl-2-[2-(2,6-difluoro-phenylamino)-pyridin-4-yl]-pyrido[3,4-d]pyrimidin-4-yl}-piperidine-4-carboxylic acid (2-methoxy-ethyl)-amide] as the compound, how does the IC50 read?
A: The IC50 was 100 to 1000 nM.

Q: Which IC50 does the source give for FC(F)(F)CC1CN(c2nc(-c3ccnc(Cl)c3)nc3cncc(C4CC4)c23)CCN1 (centres unmarked) [Example 615, 2-(2-Chloro-pyridin-4-yl)-5-cyclopropyl-4-[3-(2,2,2-trifluoro-ethyl)-piperazin-1-yl]-pyrido[3,4-d]pyrimidine] here?
A: Its IC50 is 100 to 1000 nM.

Q: Which IC50 does the source give for CN(c1nc(-c2ccnc3[nH]c(C(F)(F)F)cc23)nc2cncc(C3CC3)c12)C1CCNCC1 [Example 2070, [5-Cyclopropyl-2-(2-trifluoromethyl-1H-pyrrolo[2,3-b]pyridin-4-yl)-pyrido[3,4-d]pyrimidin-4-yl]-methyl-piperidin-4-yl-amine] here?
A: Its IC50 is under 100 nM.
